Experimental data published in patent US20150316552A1, “Human Notch Receptor Mutations and Their Use” (OncoMed Pharmaceuticals, Inc., priority 2011, published 2015).
“Also recorded” adds a separate entry of the source. Square brackets hold non-standard residues; d marks the D form. Peptide text beside a SMILES is read from it. * marks the point of attachment. Nle = CCCC[C@H](N)C(=O)O; Cbz = O=C(OCc1ccccc1)*

Assays:
[1] = tested on: NOTCH3.ICD; test: NOTCH3 ICD IHC of treated OMP-B37 breast tumors; assay type: in vivo, mice; settings: OMP-B37 xenograft; FIG. 17; listed as OMP-59R5
Method: NOTCH3.ICD accumulation in OMP-B37 tumor cells comprising a NOTCH3 activating mutation following treatment with a NOTCH2/3 antagonist and/or chemotherapy was examined by IHC. Tumor samples were isolated from the OMP-B37 xenograft mice that were treated with OMP-59R5 anti-NOTCH2/3 antibody, taxol or a combination of OMP-59R5 and taxol as described in the second paragraph of Example 3 above. A NOTCH3 ICD (“N3.ICD”) rabbit monoclonal antibody was developed that binds to the cleavage site of NOTCH3 and detects activated NOTCH3 within the nucleus. NOTCH3 ICD IHC was performed on the tumor samples using the N3.ICD antibody and standard IHC protocols with antigen retrieval in Target Retrieval Solution pH 9 (DAKO), antibody incubation overnight at 4° C. and detection with peroxidase-based EnVision™+ polymer (DAKO) and DAB+ (DAKO). Statistical significance was determined by One Way ANOVA with Bonferroni adjustment.

[2] = tested on: OMP-C31 colon tumor; test: OMP-C31 colon tumor model, tumor growth; assay type: in vivo, Nod-Scid mice; settings: 10 mg/kg IP weekly, p=0.0005; FIG. 15
Method: In order to test the effect of the 59R5 anti-NOTCH2/3 antibody on a tumor which harbors an activating mutation in NOTCH3, the OMP-C31 colon tumor model was utilized. 5,000 OMP-C31 colon tumor cells were injected sub-cutaneously in Nod-Scid mice. Dosing was initiated two days after tumor cell injection. Tumor bearing mice (n=10 group) were treated with either control antibody (1B7.11) or 59R5 anti-NOTCH2/3 antibody. Antibodies were dosed by IP injection at 10 mg/kg, weekly, for the duration of the experiment. Tumor volumes were measured on the indicated days. The data is plotted as the mean+SEM (FIG. 15).

[3] = tested on: OMP-B37 breast tumors; test: OMP-B37 breast tumor xenograft, tumor growth; assay type: in vivo, NOD/SCID mice
Method: Dissociated lineage depleted OMP-B37 p4 tumor cells were re-suspended in injection media (PBS and 0.5× matrigel) and injected subcutaneously into the right flank of 6-7 week old female NOD/SCID mice (27,000 cells/mouse). Mice were monitored weekly and tumors were allowed to grow until they were approximately 80 mm^3 (49 days after injection). Mice were randomized into two treatment groups (n=11 mice/group) and were dosed once a week with 15 mg/kg control antibody, or 20 mg/kg 59R5, an anti-NOTCH2/3 antibody (FIG. 5). Tumor growth was monitored by caliper measurement once a week.
(§1) Activity of anti-NOTCH2/3 in combination with Taxol in OMP-B37 breast tumor. The anti-NOTCH2/3 antibody 59R5, taxol, or a combination of 59R5 and taxol were administered to OMP-B37 xenograft mice. Initially, B37 p2 tumor cells were injected subcutaneously into the right flank of 6-7 week old female NOD/SCID mice. Mice were monitored weekly and tumors were allowed to grow until they were approximately 80 mm^3 Mice were then administered a control antibody, the 59R5 anti-NOTCH2/3 antibody, taxol or a combination of 59R5 anti-NOTCH2/3 antibody and taxol (FIG. 6). Tumor growth was monitored by caliper measurement once a week.

[4] = tested on: E-cadherin; test: E-cadherin expression in treated OMP-B37 tumors; assay type: in vivo, NOD/SCID mice; settings: OMP-B37 xenograft; FIG. 6B
Method: as §1

[5] = tested on: T-ALL; settings: O'Neil et al. 2006; cited from earlier work
[6] = tested on: medulloblastoma; settings: cited from earlier work
[7] = tested on: Ras-transformed fibroblasts; settings: cited from earlier work
[8] = tested on: OMP-B40 breast tumors; test: OMP-B40 breast tumor xenograft, tumor growth; assay type: in vivo, NOD/SCID mice; settings: antibodies 15 mg/kg i.p. twice a week, Taxol 20 mg/kg i.p. once a week; FIG. 3B
Method: B40 p3 tumor cells were injected subcutaneously into the left flank of 6-7 week old female NOD/SCID mice (300,000 cells/mouse). Mice were monitored weekly and tumors were allowed to grow until they were approximately 140 mm^3 (78 days after injection). Mice were randomized into five treatment groups and treated with control antibody, or different doses (0.3 mg/kg, 1 mg/kg, 3 mg/kg, 10 mg/kg) of the OMP-52M51 humanized anti-NOTCH1 antibody. The antibodies were dosed i.p. twice a week. Tumor growth was monitored by caliper measurement once a week.
Dissociated OMP-B40 p3 tumor cells were re-suspended in injection media (PBS containing 100 ng/mL VEGF and 100 ng/mL bFGF and 0.5× matrigel) and injected subcutaneously into the left flank of 6-7 week old female NOD/SCID mice (300,000 cells/mouse). Mice were monitored weekly and tumors were allowed to grow until they were approximately 140 mm^3 (78 days after injection). Mice were randomized into four treatment groups (n=10 mice/group) and treated with control antibody, anti-NOTCH1 antibody OMP-52M51, taxol or a combination of OMP-52M51 with taxol. The antibodies were dosed i.p. twice a week at 15 mg/kg and Taxol was dosed i.p. once a week at 20 mg/kg. Tumor growth was monitored by caliper measurement once a week.
As described in Example 2, three hundred thousand OMP-B40 tumor cells were injected subcutaneously and allowed to grow to a mean volume of […] At that point, 78 days after study start, mice were randomized and treatment started. Mice received either 15 mg/kg control antibody or 15 mg/kg OMP-52M51 humanized antibody twice weekly, with or without 20 mg/kg paclitaxel once weekly, all administered by IP injection. Mean±SEM, n=10 animals per group.

[9] = tested on: melanoma and Kaposi sarcoma; settings: Curry et al. 2005; cited from earlier work

With “59R5: anti-NOTCH2/3 antibody, ATCC PTA-10170; heavy chain variable region SEQ ID NO:30, light chain variable region SEQ ID NO:32” the “NOTCH3.ICD accumulation relative to PBS treated cells” value [1] was “significantly inhibited NOTCH3.ICD accumulation; also recorded: blocks NOTCH3.ICD accumulation”, the “tumor growth relative to control antibody treated group” value [2] was “inhibited OMP-C31 tumor growth” and the tumor volume reduction ([3]; 20 mg/kg once a week, after 5 weeks of treatment, FIG. 5) was 56.6%. For the same compound, the “tumor volume in xenografted animals (in words)” value ([3]; 59R5, taxol or combination study, FIG. 6A) was “greatly decreased tumor volume”, the “tumor volume compared to control antibody (in words)” value ([3]; FIG. 5) was “greatly decreased tumor volume” and the “expression of E-cadherin” value [4] was “increases expression of E-cadherin”.
For C[C@H](NC(=O)Cc1cc(F)cc(F)c1)C(=O)N[C@H](C(=O)OC(C)(C)C)c1ccccc1 [DAPT, N—[N-(3,5-difluorophenacetyl)-L-alanyl]-S-phenylglycine t-butyl ester], the “cell cycle arrest and apoptosis” value [5] is given as “induced G0-G1 cell cycle arrest and apoptosis” and the medulloblastoma growth [6] is given as “marked reduction in medulloblastoma growth”.
For CCC(C)C(NC(=O)OCc1ccccc1)C(=O)NC(C=O)CC(C)C (stereo not drawn) [IL-X, cbz-IL-CHO] (Cbz-Ile-Leu-aldehyde; configuration not given here), the antineoplastic activity [7] is listed as “NOTCH1-dependent antineoplastic activity”.
In the case of CC(=O)O[C@H]1C(=O)[C@@]2(C)[C@H]([C@H](OC(=O)c3ccccc3)[C@]3(O)C[C@H](OC(=O)[C@H](O)[C@@H](NC(=O)c4ccccc4)c4ccccc4)C(C)=C1C3(C)C)[C@]1(OC(C)=O)CO[C@@H]1C[C@@H]2O [Taxol, paclitaxel, reference compound], the “reduction in tumor volume versus control” value [8] is reported as 57.3%.
In the case of CCCC[C@@H](C=O)NC(=O)[C@H](CC(C)C)NC(=O)[C@H](CC(C)C)NC(=O)OCc1ccccc1 [z-Leu-leu-Nle-CHO] (Cbz-Leu-Leu-[Nle]-aldehyde), the tumor growth [9] is listed as “suppress tumor growth”.
